Assay results reported in US20030106108A1, “Genetic transformation method for zoysiagrass” (priority 2001, published 2003).

What was measured:
zoysiagrass type 1 calli = experiment: Growth of type 1 calli on MS media with combinations of 2,4-D and BA; assay type: cell-based, Zoysia japonica Steud.; conditions: for Callus fresh weight, Total / Callus fresh weight, Type 1 / Callus fresh weight, Type 2 / Callus fresh weight, Type 3 / Callus fresh weight, Type 4: BA 0 mg/l, 5 weeks, dark, 28° C., mean of ten calli
Method: To investigate morphological changes occurring on type 1 calli subculturing, type 1 calli were transferred to a MS medium containing various hormonal combinations of 2,4-D (1, 2, 4, and 8 mg/liter) and BA (0, 0.01, and 0.1 mg/liter) in the dark. After five weeks of subculturing in the dark, four callus types were observed. Each callus type was weighed, and the weight ratios were calculated. Calli of types 2, 3, and 4 were also examined in an identical way as with type 1 callus.
Ten mg of type 1 calli was grown on MS media with various combinations of 2,4-D and BA and 2 g/liter gelrite for 5 weeks in the dark at 28° C. Each value represents a mean calculated from ten calli. Callus morphologies were rated by; 1=whitish-yellow, compact and non-friable, 2=white, compact and friable, 3=yellow, compact and very friable, 4=translucent, soft and watery.

zoysiagrass calli = assay type: cell-based, Zoysia japonica Steud.
Method: Acetosyringone was prepared by dissolving an appropriate amount of powder in dimethyl sulfoxide at a concentration of 100 mg/ml and stored at 4° C. in the dark. It was added to the sterile medium to an appropriate final concentration whenever required. The calli proliferated on the MSCG4 medium were immersed in the Agrobacterial cell suspension for 1 min. After dehydration on sterile filter paper, the calli were cultivated on a co-cultivation medium (MSAS) with 4 mg/liter 2,4-D at 26±1° C. in the dark for 15 days. After co-cultivation, the calli were thoroughly washed by vortexing in sterile double-distilled water supplemented with a surfactant (0.02% pluronic F68) until the washing solution becomes transparent and finally washed in sterile double-distilled water containing 1000 mg/liter calbenicillin and 0.02% surfactant. After washing, an half of the calli were used for GUS activity assay by the method described by Schenk et al. (1998).
Several factors were tested to optimize transformation efficiency. (1) For comparison of different callus types on invasiveness, types 1, 2 and 3 calli were co-cultivated on 2,4-D-free MSAS media for 6 days; (2) For comparison of co-cultivation periods, calli were co-cultivated for 3, 6, 9, 12, 15, 18, 21, 24 and 27 days; (3) For examination of media components, different amounts of 2,4-D (0, 1, 2, 4, and 8 mg/liter), CaCl2 (0, 11, 110, 220, and 440 mg/liter), and acetosyringone (0, 10, 50, 100, and 200 mg/liter) were added to the MSAS media.

Agrobacterial cell = experiment: Agrobacterium elimination in shoot induction media; assay type: cell-based, Agrobacterium tumefaciens; conditions: 125 mg/liter calbenicillin-containing media
Method: The optimized conditions for the A. tumefaciens infection of zoysiagrass calli included the use of type 3 calli as donor, a co-cultivation period of 9 days, the exclusion of 2,4-D and CaCl2 from the media, and the use of 100 mg/l acetosyringone. After pGPTV-HB co-cultivation, calli were transferred to filter paper-laid MSCG media and cultured for 2-4 weeks in the dark. The calli were then transferred to filter paper-laid MSSI medium for shoot induction. Various concentrations (125, 250, and 500 mg/liter) of calbenicillin were added to the shoot induction medium. Induced shoots were subsequently transferred to the MSRS medium for rooting and selection for 4 weeks. Five mg/liter bialaphos and 10 mg/liter hygromycin were used for selection of bialaphos- and hygromycin-resistant plantlets. The rooting plants on the selection medium were transferred to the MSPG medium without antibiotics and bialaphos and further grown. The fully grown plants were then transferred to a pot containing soil and grown in an environmentally controlled growth chamber set at 30° C., 80% relative humidity and 18-hour photoperiod with 30 μmolm^−2s^−1 irradiance provided by cool white fluorescent tubes. When the roots developed enough, pots were transferred to green house. […]

In the case of `O=C(O)COc1ccc(Cl)cc1Cl` [2,4-D, 2,4-dichlorophenoxyacetic acid], the “Callus fresh weight, Total” value (zoysiagrass type 1 calli; 2,4-D 1 mg/l) was 81.5 mg, the “Callus fresh weight, Type 1” value (zoysiagrass type 1 calli; 2,4-D 1 mg/l) was 45.8 mg and the “Callus fresh weight, Type 2” value (zoysiagrass type 1 calli; 2,4-D 1 mg/l) was 22.3 mg. The “Callus fresh weight, Type 3” value (zoysiagrass type 1 calli; 2,4-D 1 mg/l) was 0 mg, the “Callus fresh weight, Type 4” value (zoysiagrass type 1 calli; 2,4-D 1 mg/l) was 13.4 mg and the “Callus fresh weight, Total” value (zoysiagrass type 1 calli; 2,4-D 2 mg/l) was 37.0 mg. The “Callus fresh weight, Type 1” value (zoysiagrass type 1 calli; 2,4-D 2 mg/l) was 18.8 mg, the “Callus fresh weight, Type 2” value (zoysiagrass type 1 calli; 2,4-D 2 mg/l) was 2.3 mg and the “Callus fresh weight, Type 3” value (zoysiagrass type 1 calli; 2,4-D 2 mg/l) was 1.5 mg. The “Callus fresh weight, Type 4” value (zoysiagrass type 1 calli; 2,4-D 2 mg/l) was 14.5 mg, the “Callus fresh weight, Total” value (zoysiagrass type 1 calli; 2,4-D 4 mg/l) was 29.6 mg and the “Callus fresh weight, Type 1” value (zoysiagrass type 1 calli; 2,4-D 4 mg/l) was 11.4 mg. For the same molecule, the “Callus fresh weight, Type 2” value (zoysiagrass type 1 calli; 2,4-D 4 mg/l) was 0 mg, the “Callus fresh weight, Type 3” value (zoysiagrass type 1 calli; 2,4-D 4 mg/l) was 0.9 mg and the “Callus fresh weight, Type 4” value (zoysiagrass type 1 calli; 2,4-D 4 mg/l) was 17.2 mg. The “Number of GUS blue spots per 1 g fresh weight of calli, effect of 2,4-D” value (zoysiagrass calli; 2,4-D 0, 1, 2, 4, 8 mg/liter in co-cultivation medium, 9 days of co-cultivation) was “decreased as the 2,4-D concentration increased”.

For `c1ccc(CNc2ncnc3[nH]cnc23)cc1` [BA], the “Reduction of incidence rate of non-regenerable type 4 calli” value (zoysiagrass type 1 calli; addition of 0.01 mg/liter BA in combination with 2,4-D) was 1.8-3.4 times.

With `[Ca+2].[Cl-].[Cl-]` [CaCl2] the “Number of GUS blue spots per 1 g fresh weight calli, effect of CaCl2” value (zoysiagrass calli; CaCl2 0, 11, 110, 220, 440 mg/liter in co-cultivation medium) was “decreased as the CaCl2 concentration increased”.

For `COc1cc(C(C)=O)cc(OC)c1O` [acetosyringone], the “Increase of the number of blue spots (factor)” value (zoysiagrass calli; 50 mg/liter acetosyringone in co-cultivation medium vs acetosyringone-free medium) was 9, the Transformation efficiency (zoysiagrass calli; 30˜70 mg/liter acetosyringone during co-cultivation) was “greatly enhanced” and the “Effect on the transformation” value (zoysiagrass calli; higher than 100 mg/liter acetosyringone) was “negative effect”.

With `CC1(C)S[C@@H]2[C@H](NC(=O)C(C(=O)O)c3ccccc3)C(=O)N2[C@H]1C(=O)O` (stereo partly shown) [calbenicillin] the “Agrobacterial cell contamination of media” value (Agrobacterial cell) was “sometimes observed”.
